Laboratory results: PubChem BioAssay (NCI)
“And” between values parts separate entries of the source, which are not always exact repeats. Equal values may be shown once.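 Compound exposure: 48 hours, 5 concentrations, 96-well plates. GI50 is the concentration that inhibits growth by half. Definition used: TGI = concentration required for complete inhibition of growth.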

What was measured:
Assay in all cases: NCI anticancer screen, dose series, 48 h
HL-60(TB) leukemia = system: HL-60(TB) leukemia
HOP-62 NSCLC = system: HOP-62 NSCLC
RPMI-8226 leukemia = system: RPMI-8226 leukemia
SK-OV-3 ovarian = system: SK-OV-3 ovarian
SR leukemia = system: SR leukemia
TK-10 renal = system: TK-10 renal
DU-145 prostate = system: DU-145 prostate
HS 578T breast = system: HS 578T breast
MCF7 breast = system: MCF7 breast
MDA-MB-435 = system: MDA-MB-435

`C1=Nc2ccccc2Cn2nncc21` showed a TGI (HL-60(TB) leukemia) greater than 100 µM, a TGI (HOP-62 NSCLC) greater than 100 µM and a TGI (RPMI-8226 leukemia) greater than 100 µM. For the same compound, the TGI (SK-OV-3 ovarian) was greater than 100 µM, the TGI (SR leukemia) was greater than 100 µM and the TGI (TK-10 renal) was greater than 100 µM.
`CC(C)(C)CNCCCNc1ccc(Cl)cc1` was tested, and the TGI (DU-145 prostate) was greater than 100 µM, the TGI (HL-60(TB) leukemia) was 0.172 µM and the TGI (HOP-62 NSCLC) was greater than 100 µM. It also gave a TGI (HS 578T breast) greater than 100 µM, a TGI (MCF7 breast) of 46 µM and a TGI (MDA-MB-435) of 68.2 µM. For the same compound, the TGI (RPMI-8226 leukemia) was 55.4 µM, the TGI (SK-OV-3 ovarian) was greater than 100 µM and the TGI (SR leukemia) was 49.4 µM. The TGI (TK-10 renal) was 73.9 µM.
Work on `Clc1ccc(C2CC(c3cccc(Nc4ccncc4)c3)=NN2c2ccccc2)cc1` (stereo not drawn) yielded a GI50 (DU-145 prostate) of 1.73 µM, a TGI (DU-145 prostate) of 3.27 µM and a GI50 (HL-60(TB) leukemia) of 1.71 µM. The TGI (HL-60(TB) leukemia) was 3.87 µM, the GI50 (HOP-62 NSCLC) was 2.31 µM and the TGI (HOP-62 NSCLC) was 5.15 µM. It also gave a GI50 (MCF7 breast) of 1.65 µM, a TGI (MCF7 breast) of 3.44 µM and a GI50 (MDA-MB-435) of 1.62 µM. For the same compound, the TGI (MDA-MB-435) was 3.07 µM, the GI50 (SK-OV-3 ovarian) was 2.57 µM and the TGI (SK-OV-3 ovarian) was 7.33 µM. For the same compound, the GI50 (TK-10 renal) was 1.83 µM and the TGI (TK-10 renal) was 3.45 µM.
Work on `CC(C)=CC1C(COC(=O)c2ccccc2Cl)C1(C)C` (stereo not drawn) yielded a TGI (DU-145 prostate) greater than 100 µM, a TGI (HL-60(TB) leukemia) of 67.7 µM and a TGI (HOP-62 NSCLC) greater than 100 µM. It also gave a TGI (HS 578T breast) of 60.1 µM, a TGI (MDA-MB-435) greater than 100 µM and a TGI (SR leukemia) greater than 100 µM. The TGI (TK-10 renal) was greater than 100 µM.
`O=[N+]([O-])c1ccc(NNN=Nc2ccc(-c3nc4ccccc4[nH]3)cc2)c([N+](=O)[O-])c1` was tested, and the TGI (DU-145 prostate) was greater than 100 µM, the TGI (HL-60(TB) leukemia) was greater than 100 µM and the TGI (HOP-62 NSCLC) was greater than 100 µM. It also gave a TGI (HS 578T breast) greater than 100 µM, a TGI (MCF7 breast) of 57.6 µM and a TGI (MDA-MB-435) greater than 100 µM. It also gave a TGI (SK-OV-3 ovarian) greater than 100 µM, a TGI (SR leukemia) greater than 100 µM and a TGI (TK-10 renal) greater than 100 µM.
Compound `CCN(CC)CCCC(C)Nc1c2ccc(Cl)cc2nc2cc(Cl)ccc12` (stereo not drawn) has a TGI (HL-60(TB) leukemia) of 4.6 µM, a TGI (HOP-62 NSCLC) of 22.1 µM and a TGI (MCF7 breast) of 9.49 µM. It also gave a TGI (RPMI-8226 leukemia) of 5.11 µM and a TGI (SK-OV-3 ovarian) of 21.9 µM.
`CC(C)C(=O)Nc1ccc(-c2nc(-c3cccc(OCCN4CCOCC4)c3)c(-c3ccnc(Br)c3)[nH]2)cc1` gave a GI50 (DU-145 prostate) of 4.48 µM, a TGI (DU-145 prostate) greater than 100 µM and a GI50 (HOP-62 NSCLC) of 2.94 µM. The TGI (HOP-62 NSCLC) was 14.5 µM, the GI50 (HS 578T breast) was 1.04 µM and the TGI (HS 578T breast) was 3.69 µM. For the same compound, the GI50 (MCF7 breast) was 1.89 µM, the TGI (MCF7 breast) was 4.92 µM and the GI50 (MDA-MB-435) was 2.92 µM. It also gave a TGI (MDA-MB-435) of 10 µM, a GI50 (RPMI-8226 leukemia) of 1.09 µM and a TGI (RPMI-8226 leukemia) of 4 µM. For the same compound, the GI50 (SK-OV-3 ovarian) was 2.45 µM, the TGI (SK-OV-3 ovarian) was 5.53 µM and the GI50 (SR leukemia) was 1.83 µM. The TGI (SR leukemia) was 7.09 µM, the GI50 (TK-10 renal) was 4.32 µM and the TGI (TK-10 renal) was 31.3 µM.
Compound `CC(C)NC(=O)OCc1nnn2c1CCC2` has a TGI (HL-60(TB) leukemia) greater than 100 µM, a TGI (HOP-62 NSCLC) greater than 100 µM and a TGI (SK-OV-3 ovarian) greater than 100 µM. The TGI (SR leukemia) was greater than 100 µM and the TGI (TK-10 renal) was greater than 100 µM.
In the case of `COC1=CC(=O)c2c(c(COC(C)=O)cn2C)C1=O`, the TGI (DU-145 prostate) is reported as 0.247 µM, the TGI (HL-60(TB) leukemia) is reported as 0.694 µM and the TGI (MCF7 breast) is reported as 2.5 µM. For the same compound, the TGI (MDA-MB-435) was 0.28 µM, the TGI (RPMI-8226 leukemia) was 0.584 µM and the TGI (SK-OV-3 ovarian) was 0.677 µM. For the same compound, the TGI (SR leukemia) was 0.545 µM and the TGI (TK-10 renal) was 0.207 µM.
`Clc1ccc(OCc2nnc3sc(SSc4nn5c(COc6ccc(Cl)cc6)nnc5s4)nn23)cc1` showed a TGI (DU-145 prostate) greater than 100 µM, a TGI (HL-60(TB) leukemia) greater than 100 µM and a TGI (HOP-62 NSCLC) greater than 100 µM. The TGI (HS 578T breast) was greater than 100 µM, the GI50 (MCF7 breast) was 45 µM and the TGI (MCF7 breast) was greater than 100 µM. The TGI (MDA-MB-435) was greater than 100 µM, the TGI (RPMI-8226 leukemia) was greater than 100 µM and the TGI (SK-OV-3 ovarian) was greater than 100 µM. It also gave a GI50 (SR leukemia) of 14.2 µM, a TGI (SR leukemia) greater than 100 µM and a GI50 (TK-10 renal) of 73.2 µM. For the same compound, the TGI (TK-10 renal) was greater than 100 µM.
With `CC[C@@]1(O)C(=O)OCc2c1cc1n(c2=O)Cc2cc3c(CN(C)C)c(O)ccc3nc2-1` the GI50 (HL-60(TB) leukemia) was 0.0103 µM and 0.00542 µM, the GI50 (HOP-62 NSCLC) was 0.0102 µM and 0.00621 µM and 0.0163 µM and the GI50 (HS 578T breast) was 1.27 µM and 5.8 µM and 1.88 µM. For the same compound, the TGI (HS 578T breast) was 96.6 µM and 12.2 µM and 39.6 µM, the GI50 (MCF7 breast) was less than 0.01 µM and the GI50 (MDA-MB-435) was 0.0713 µM and 0.108 µM and 0.0243 µM. For the same compound, the GI50 (RPMI-8226 leukemia) was 0.163 µM and 0.0818 µM and 0.435 µM and the TGI (TK-10 renal) was 14.2 µM and 64.8 µM and 88.7 µM.
`CC1(CO)C(O)CCC2(C)C1C(O)CC1CC3CC12CCC3(O)CO` (stereo not drawn) was tested, and the TGI (HL-60(TB) leukemia) was greater than 225 µM, the TGI (HOP-62 NSCLC) was greater than 225 µM and the TGI (MCF7 breast) was greater than 225 µM. The TGI (RPMI-8226 leukemia) was greater than 196 µM and the TGI (SK-OV-3 ovarian) was greater than 225 µM.
